In patent US10065950B2, “Substituted thiazoles as HIV integrase inhibitors” (Japan Tobacco Inc., priority 2010, dated 2018):

Each compound was assayed against HIV-1 pNL4-3 integrase (Human immunodeficiency virus type 1 group M subtype B (isolate NY5) (HIV-1), UniProt P12497) (assay: Determination of enzyme (HIV integrase) inhibitory activity). Settings: calculated from inhibition rate (fluorescence).
Assay type: biochemical
Method: The following explains evaluation methods of the HIV integrase inhibitory activity of the compound of the present invention.
A full-length gene sequence (Accession No.: M19921) of HIV-1 pNL4-3 integrase was inserted into restriction enzyme Nde I and Xho I sites of plasmid pET21a(+) (manufactured by Novagen) to construct an integrase expression vector pET21a-IN-Wild type.
Escherichia coli recombinant BL21(DE3) transformed with plasmid pET21a-IN-Wild type obtained in (i) was shake cultured at 30° C. in a liquid medium containing ampicillin. When the culture reached the logarithmic growth phase, isopropyl-β-D-thiogalactopyranoside was added to promote expression of integrase gene. The culture was continued for 5 hr to promote accumulation of the integrase protein. The recombinant E. coli was collected in pellets by centrifugal separation and preserved at −80° C.
This Escherichia coli was suspended in Lysis buffer (50 mM Tris-HCl (pH 7.6), 10 mM MgCl2, 5 mM DTT), and disrupted by repeating treatments of pressurization and depressurization, and insoluble fraction was collected by centrifugation at 4° C., 18,000 rpm for 60 min. This was suspended in Lysis buffer containing a protease inhibitor, […] and 10 mM CHAPS were added, and the mixture was stirred at 4° C. for 30 min. Water-soluble fraction was collected by centrifugation at 4° C., 9,000 rpm for 30 min. The obtained fraction was diluted with a column buffer (50 mM Tris-HCl (pH 7.6), 1 mM DTT, 10% Glycerol, 10 mM CHAPS) to 5-fold, and the mixture was applied to heparin column (HiPrep 16/10 Heparin FF column: manufactured by GE Healthcare Bio-Sciences). Using a column buffer containing 1M NaCl, a protein was eluted with 0-1M NaCl concentration gradient, and an eluted fraction containing an integrase protein was collected. The obtained fraction was diluted 5-fold with a column buffer (50 mM Tris-HCl (pH 7.6), 1 mM DTT, 10% Glycerol, 10 mM CHAPS), and the mixture was applied to cation exchange column (Mono-S column: manufactured by GE Healthcare Bio-Sciences). Using a column buffer containing 1M NaCl, a protein was eluted with 0-1M NaCl concentration gradient, and an eluted fraction containing an integrase protein was collected. The obtained fractions of the integrase protein were collected, and preserved at −80° C.
The following DNA synthesized by FASMAC was dissolved in TE buffer (10 mM Tris-hydrochloric acid (pH 8.0), 1 mM EDTA) and mixed with donor DNA, target DNA, and each complementary strand (+ and − strands) to 1 μM. The mixture was heated at 95° C. for 5 min, 80° C. for 10 min, 70° C. for 10 min, 60° C. for 10 min, 50° C. for 10 min and 40° C. for 10 min and kept at 25° C. to give a double stranded DNA, which was used for the test.
Donor DNA (+strand having biotin attached to the 5′ terminal)
Target DNA (+, − strands both having digoxigenin attached to the 3′ terminal)
The donor DNA was diluted with TE buffer to 20 nM, of which 50 μL was added to each well of streptavidin-coated black plate (manufactured by PIAS Corporation) and allowed to adsorb at 37° C. for 20 min. The plate was washed with phosphate buffer (Dulbecco's PBS, Sanko Junyaku Co., Ltd.) containing 0.1% Tween 20 and phosphate buffer. Then, an enzyme reaction mixture (70 μL), a test substance (10 μL) diluted with the enzyme reaction mixture and 0.75 μM integrase protein (10 μL) were added to each well and the mixture was reacted at 37° C. for 60 min. composition of enzyme reaction mixture: 30 mM MOPS (3-morpholinopropanesulfonic acid), 5 mM magnesium chloride, 3 mM DTT (dithiothreitol), 0.1 mg/mL BSA (bovine serum albumin), 5% glycerol, 10% DMSO (dimethyl sulfoxide), 0.01% Tween 20.
Then, 25 nM target DNA (10 μL) was added, and the mixture was reacted at 37° C. for 20 min and washed with phosphate buffer containing 0.1% Tween 20 to stop the reaction. […]

SMILES	IC50 [nM]
COCCOC[C@H]1CN(C(C)C)C(=O)c2c(O)c(=O)c(-c3nnc(Cc4ccc(F)cc4F)s3)cn21 [Example 44]	8.1
COCCOC[C@H]1CN(CC(C)C)C(=O)c2c(O)c(=O)c(-c3nnc(Cc4ccc(F)cc4F)s3)cn21 [Example 45]	11
COCCOC[C@@H]1CN(C(C)C)C(=O)c2c(O)c(=O)c(-c3nnc(Cc4ccc(F)cc4F)s3)cn21 [Example 46]	11
COCCOC[C@@H]1CN(CC(C)C)C(=O)c2c(O)c(=O)c(-c3nnc(Cc4ccc(F)cc4F)s3)cn21 [Example 47]	12
COCCOC[C@@H]1Cn2cc(-c3nnc(Cc4ccc(F)cc4F)s3)c(=O)c(O)c2C(=O)N1CC(C)C [Example 48]	6.9
CC(C)N1CC(CC#N)n2cc(-c3ncc(Cc4ccc(F)cc4F)s3)c(=O)c(O)c2C1=O (stereo not shown) [Example 49]	5.1
CC(C)N1C(=O)c2c(O)c(=O)c(-c3nnc(Cc4ccc(F)cc4F)s3)cn2CC1C(=O)O (stereo not shown) [Example 50]	6.4
CNC(=O)C1Cn2cc(-c3nnc(Cc4ccc(F)cc4F)s3)c(=O)c(O)c2C(=O)N1C(C)C (stereo not shown) [Example 51]	5.7
CC(C)N1CC(C)(C(=O)N2CCOCC2)n2cc(-c3ncc(Cc4ccc(F)cc4F)s3)c(=O)c(O)c2C1=O (stereo not shown) [Example 52]	13
CC(C)N1C(=O)c2c(O)c(=O)c(-c3nnc(Cc4ccc(F)cc4F)s3)cn2CC1C(=O)N(C)C (stereo not shown) [Example 53]	10
COCCOC[C@@H]1Cn2cc(-c3nnc(Cc4ccc(F)cc4F)s3)c(=O)c(O)c2C(=O)N1C(C)C [Example 54]	7.5
COCCOC[C@H]1Cn2cc(-c3nnc(Cc4ccc(F)cc4F)s3)c(=O)c(O)c2C(=O)N1CC(C)C [Example 55]	21
COCCOC[C@H]1CN(C(C)C)C(=O)c2c(O)c(=O)c(-c3ncc(Cc4ccc(F)cc4F)s3)cn21 [Example 56]	10
COCCOC[C@H]1CN(CC(C)C)C(=O)c2c(O)c(=O)c(-c3ncc(Cc4ccc(F)cc4F)s3)cn21 [Example 57]	11
COCCOC[C@H]1Cn2cc(-c3ncc(Cc4ccc(F)cc4F)s3)c(=O)c(O)c2C(=O)N1CC(C)C [Example 58]	17
COCCOC[C@H]1Cn2cc(-c3ncc(Cc4ccc(F)cc4F)s3)c(=O)c(O)c2C(=O)N1C(C)C [Example 59]	12
COCCOC[C@H]1Cn2cc(-c3nnc(Cc4ccc(F)cc4F)s3)c(=O)c(O)c2C(=O)N1C(C)C [Example 60]	17
COCC1Cn2cc(-c3ncc(Cc4ccc(F)cc4F)s3)c(=O)c(O)c2C(=O)N1C(C)C (stereo not shown) [Example 61]	6.6
COCC1Cn2cc(-c3ncc(Cc4ccc(F)cc4F)s3)c(=O)c(O)c2C(=O)N1CC(C)C (stereo not shown) [Example 62]	9.2
COCC1CN(CC(C)C)C(=O)c2c(O)c(=O)c(-c3nnc(Cc4ccc(F)cc4F)s3)cn21 (stereo not shown) [Example 63]	8.3
CC(C)N1C(=O)c2c(O)c(=O)c(-c3nnc(Cc4ccc(F)cc4F)s3)cn2CC1C#N (stereo not shown) [Example 64]	6.1
CC(C)N1CC(CN2C(=O)c3ccccc3C2=O)n2cc(-c3ncc(Cc4ccc(F)cc4F)s3)c(=O)c(O)c2C1=O (stereo not shown) [Example 65]	13
CC(C)N1CC(CN)n2cc(-c3ncc(Cc4ccc(F)cc4F)s3)c(=O)c(O)c2C1=O (stereo not shown) [Example 66]	6.4
CC(=O)NCC1CN(C(C)C)C(=O)c2c(O)c(=O)c(-c3ncc(Cc4ccc(F)cc4F)s3)cn21 (stereo not shown) [Example 67]	7.6
CCC(=O)NCC1CN(C(C)C)C(=O)c2c(O)c(=O)c(-c3ncc(Cc4ccc(F)cc4F)s3)cn21 (stereo not shown) [Example 68]	9.8
CC(C)C(=O)NCC1CN(C(C)C)C(=O)c2c(O)c(=O)c(-c3ncc(Cc4ccc(F)cc4F)s3)cn21 (stereo not shown) [Example 69]	13

SMILES	IC50 [nM]
CC1(C)Cn2cc(-c3nnc(Cc4ccc(F)cc4F)s3)c(=O)c(O)c2C(=O)N1C1CCOC1 (stereo not shown) [Example 70]	8.9
CC(C)N1CC(CC(=O)NC2CC2)n2cc(-c3ncc(Cc4ccc(F)cc4F)s3)c(=O)c(O)c2C1=O (stereo not shown) [Example 71]	11
CC(C)N1CC(CC(=O)N2CCOCC2)n2cc(-c3ncc(Cc4ccc(F)cc4F)s3)c(=O)c(O)c2C1=O (stereo not shown) [Example 72]	11
COCCN(C)C(=O)CC1CN(C(C)C)C(=O)c2c(O)c(=O)c(-c3ncc(Cc4ccc(F)cc4F)s3)cn21 (stereo not shown) [Example 73]	7.7
CC(C)N1C(=O)c2c(O)c(=O)c(-c3nnc(Cc4ccc(F)cc4F)s3)cn2CC1CC(=O)O (stereo not shown) [Example 74]	5.7
CC(C)N1C(=O)c2c(O)c(=O)c(-c3nnc(Cc4ccc(F)cc4F)s3)cn2CC1CC(=O)N(C)C (stereo not shown) [Example 75]	9.1
CCN(C)C(=O)CC1CN(C(C)C)C(=O)c2c(O)c(=O)c(-c3ncc(Cc4ccc(F)cc4F)s3)cn21 (stereo not shown) [Example 76]	8.3
CCN(CC)C(=O)CC1CN(C(C)C)C(=O)c2c(O)c(=O)c(-c3ncc(Cc4ccc(F)cc4F)s3)cn21 (stereo not shown) [Example 77]	11
CC(C)N1CC(CNS(C)(=O)=O)n2cc(-c3ncc(Cc4ccc(F)cc4F)s3)c(=O)c(O)c2C1=O (stereo not shown) [Example 78]	8.9
CC(C)N1CC(C#N)n2cc(-c3ncc(Cc4ccc(F)cc4F)s3)c(=O)c(O)c2C1=O (stereo not shown) [Example 79]	6.4
CC(=O)N(C)CC1CN(C(C)C)C(=O)c2c(O)c(=O)c(-c3ncc(Cc4ccc(F)cc4F)s3)cn21 (stereo not shown) [Example 80]	9.8
CNC(=O)CC1Cn2cc(-c3nnc(Cc4ccc(F)cc4F)s3)c(=O)c(O)c2C(=O)N1C(C)C (stereo not shown) [Example 81]	7.5
CC(C)N1C(=O)c2c(O)c(=O)c(-c3nnc(Cc4ccc(F)cc4F)s3)cn2CC1CC#N (stereo not shown) [Example 82]	4.9
COCCOC[C@@H]1Cn2cc(-c3nnc(Cc4ccc(F)cc4)s3)c(=O)c(O)c2C(=O)N1C(C)C [Example 83]	7.1
COCCOC[C@@H]1Cn2cc(-c3nnc(Cc4ccc(F)cc4)s3)c(=O)c(O)c2C(=O)N1C1CCC1 [Example 84]	11
COC[C@H]1CN(C(C)C)C(=O)c2c(O)c(=O)c(-c3nnc(Cc4ccc(F)cc4F)s3)cn21 [Example 85]	7.5
COCCOC[C@H]1CN(C2CCC2)C(=O)c2c(O)c(=O)c(-c3nnc(Cc4ccc(F)cc4F)s3)cn21 [Example 86]	9.5
COC[C@@H]1CN(C(C)C)C(=O)c2c(O)c(=O)c(-c3nnc(Cc4ccc(F)cc4F)s3)cn21 [Example 87]	7.7
COC[C@@H]1CN(C(C)C)C(=O)c2c(O)c(=O)c(-c3nnc(Cc4ccc(F)cc4)s3)cn21 [Example 88]	8.7
CCN1C[C@@H](COC)n2cc(-c3nnc(Cc4ccc(F)cc4F)s3)c(=O)c(O)c2C1=O [Example 89]	8
CC(C)N1C(=O)c2c(O)c(=O)c(-c3nnc(Cc4ccc(F)cc4F)s3)cn2CC1CCO (stereo not shown) [Example 90]	6.7
COC[C@H]1CN(C2CCC2)C(=O)c2c(O)c(=O)c(-c3nnc(Cc4ccc(F)cc4)s3)cn21 [Example 92]	8.7
COC[C@@H]1Cn2cc(-c3nnc(Cc4ccc(F)cc4F)s3)c(=O)c(O)c2C(=O)N1C1CCC1 [Example 93]	7.8
CC(C)N1CC(C)(C(=O)N2CCC2)n2cc(-c3ncc(Cc4ccc(F)cc4F)s3)c(=O)c(O)c2C1=O (stereo not shown) [Example 94]	8.8
COC[C@H]1Cn2cc(-c3nnc(Cc4ccc(F)cc4)s3)c(=O)c(O)c2C(=O)N1C(C)C [Example 95]	9.5
COC[C@H]1Cn2cc(-c3nnc(Cc4ccc(F)cc4F)s3)c(=O)c(O)c2C(=O)N1C(C)C [Example 96]	6.7
